Source: patent US20230167105A1, “BCL-2 PROTEIN INHIBITORS” (Recurium IP Holdings, LLC, priority 2020, published 2023)

How the values were obtained:
MOLT-4 cells = assay: MOLT-4 Cell Proliferation Assay (CellTiter-Glo); type: cell-based; conditions: Homo sapiens, 72 h, read-out: MOLT-4 CTG IC50
How it was run: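 MOLT-4 cells at 50,000/well in serum-supplemented medium received a 10-point 1:3 dilution series (top 10 μM final, 0.1% DMSO) in duplicate for 72 h at 37 °C. Viability was read as CellTiter-Glo luminescence, and IC50 came from nonlinear regression.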

Bcl-xL = biological target: T1, Bcl-xL (Homo sapiens, UniProt Q07817); assay: Protein Degradation Assay in MOLT-4 Cells (Western blot); type: cell-based; conditions: for BCL-xL degradation in MOLT-4 cells: 50 nM compound, 16 hours, FIGS. 7 and 8
T1 construct: endogenous in cells; host or cells: MOLT-4 (ATCC CRL-1582)
T1 sequence (Q07817 whole entry): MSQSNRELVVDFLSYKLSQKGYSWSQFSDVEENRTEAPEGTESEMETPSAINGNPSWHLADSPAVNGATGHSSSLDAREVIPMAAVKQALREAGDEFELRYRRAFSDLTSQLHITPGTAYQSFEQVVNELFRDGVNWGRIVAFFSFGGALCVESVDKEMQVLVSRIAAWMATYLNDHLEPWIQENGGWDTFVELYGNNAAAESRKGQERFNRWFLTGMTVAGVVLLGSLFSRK
Experimental: MOLT-4 (ATCC, CRL-1582) (FIGS. 7,8) were incubated with vehicle or 50 nM concentrations of the indicated compounds for 16 hours. For proteasome inhibition, MOLT-4 cells (250,000 cells/well) were pretreated with 1 μM of MG132 for 1 hour before the addition of 100 nM of the indicated compounds for 16 h. After treatment, the cells were harvested in RIPA lysis buffer supplemented with 1% Phosphatase Inhibitor and Protease Inhibitor Cocktail. An equal amount of protein (10 μg/lane) from each cell extract was resolved on a 4-12% Bis-Tris gel. Proteins were transferred using iBlot 2 Transfer Stacks. The membranes were blocked with 5% nonfat milk in TBS-T buffer (50 mM Tris-HCL, pH 7.6; 150 mM NaCl; and 0.05% Tween) and probed with primary antibodies (1:1000 dilution) overnight at 4° C. After three washes with TBS-T (10 min/wash), the membranes were incubated with an appropriate peroxidase-conjugated secondary antibody (Cell Signaling Technology, USA) for 1 hour at rt. After three washes with TBS-T, the proteins of interest were detected with ECL Western Blotting Detection Reagents and captured with an Azure imaging system. The band intensities were determined using ImageJ software and normalized to loading control β-actin or GAPDH. The primary antibodies Bcl-xL (#2762), Bcl-2 (#2872s), and GAPDH (#5174) were purchased from Cell Signaling Technology.

SMILES	IC50 (MOLT-4 cells) [nM]	BCL-xL degradation in MOLT-4 cells (Bcl-xL)	BCL-xL degradation in MOLT-4 cells, dose dependence (Bcl-xL; FIG. 9)	Bcl-xL degradation with proteasome inhibitor MG132 (Bcl-xL; MOLT-4 cells pretreated with 1 μM MG132 for 1 hour, then 100 nM compound for 16 h, FIG. 10)
Cc1ncsc1-c1ccc([C@H](C)NC(=O)[C@@H]2C[C@@H](O)CN2C(=O)[C@@H](NC(=O)CCCCCC(=O)N2CCN(CC[C@H](CSc3ccccc3)Nc3ccc(S(=O)(=O)NC(=O)c4ccc(N5CCN(CC6=C(C78CC(C)(C7)C8)CC(C)(C)CC6)CC5)cc4)cc3S(=O)(=O)C(F)(F)F)CC2)C(C)(C)C)cc1 [Example 9, (2S,4R)-1-((S)-2-(7-(4-((R)-3-((4-(N-(4-(4-((4,4-dimethyl-2-(3-methylbicyclo[1.1.1]pentan-1-yl)cyclohex-1-en-1-yl)methyl)piperazin-1-yl)benzoyl)sulfamoyl)-2-((trifluoromethyl)sulfonyl)phenyl)amino)-4-(phenylthio)butyl)piperazin-1-yl)-7-oxoheptanamido)-3,3-dimethylbutanoyl)-4-hydroxy-N—((S)-1-(4-(4-methylthiazol-5-yl)phenyl)ethyl)pyrrolidine-2-carboxamide]	50 to 150	induce BCL-xL degradation	–	–
Cc1ncsc1-c1ccc([C@H](C)NC(=O)[C@@H]2C[C@@H](O)CN2C(=O)[C@@H](NC(=O)CCCCCCCC(=O)N2CCN(CC[C@H](CSc3ccccc3)Nc3ccc(S(=O)(=O)NC(=O)c4ccc(N5CCN(CC6=C(C78CC(C)(C7)C8)CC(C)(C)CC6)CC5)cc4)cc3S(=O)(=O)C(F)(F)F)CC2)C(C)(C)C)cc1 [Example 24, (2S,4R)-1-((S)-2-(9-(4-((R)-3-((4-(N-(4-(4-((4,4-dimethyl-2-(3-methylbicyclo[1.1.1]pentan-1-yl)cyclohex-1-en-1-yl)methyl)piperazin-1-yl)benzoyl)sulfamoyl)-2-((trifluoromethyl)sulfonyl)phenyl)amino)-4-(phenylthio)butyl)piperazin-1-yl)-9-oxononanamido)-3,3-dimethylbutanoyl)-4-hydroxy-N—((S)-1-(4-(4-methylthiazol-5-yl)phenyl)ethyl)pyrrolidine-2-carboxamide]	50 to 150	induce BCL-xL degradation	–	–
Cc1ncsc1-c1ccc([C@H](C)NC(=O)[C@@H]2C[C@@H](O)CN2C(=O)[C@@H](NC(=O)CCCCCCCN(C)CC[C@H](CSc2ccccc2)Nc2ccc(S(=O)(=O)NC(=O)c3ccc(N4CCN(CC5=C(C67CC(C(F)F)(C6)C7)CC(C)(C)CC5)CC4)cc3)cc2S(=O)(=O)C(F)(F)F)C(C)(C)C)cc1 [Example 28, (2S,4R)-1-((S)-2-(8-(((R)-3-((4-(N-(4-(4-((2-(3-(difluoromethyl)bicyclo[1.1.1]pentan-1-yl)-4,4-dimethylcyclohex-1-en-1-yl)methyl)piperazin-1-yl)benzoyl)sulfamoyl)-2-((trifluoromethyl)sulfonyl)phenyl)amino)-4-(phenylthio)butyl)(methyl)amino)octanamido)-3,3-dimethylbutanoyl)-4-hydroxy-N—((S)-1-(4-(4-methylthiazol-5-yl)phenyl)ethyl)pyrrolidine-2-carboxamide]	50 to 150	induce BCL-xL degradation	–	–
Cc1ncsc1-c1ccc([C@H](C)NC(=O)[C@@H]2C[C@@H](O)CN2C(=O)[C@@H](NC(=O)CCCCCC(=O)N(C)C2CCN(CC[C@H](CSc3ccccc3)Nc3ccc(S(=O)(=O)NC(=O)c4ccc(N5CCN(CC6=C(C78CC(C(F)F)(C7)C8)CC(C)(C)CC6)CC5)cc4)cc3S(=O)(=O)C(F)(F)F)CC2)C(C)(C)C)cc1 [Example 44, N1-(1-((R)-3-((4-(N-(4-(4-((2-(3-(difluoromethyl)bicyclo[1.1.1]pentan-1-yl)-4,4-dimethylcyclohex-1-en-1-yl)methyl)piperazin-1-yl)benzoyl)sulfamoyl)-2-((trifluoromethyl)sulfonyl)phenyl)amino)-4-(phenylthio)butyl)piperidin-4-yl)-N7-((S)-1-((2S,4R)-4-hydroxy-2-(((S)-1-(4-(4-methylthiazol-5-yl)phenyl)ethyl)carbamoyl)pyrrolidin-1-yl)-3,3-dimethyl-1-oxobutan-2-yl)-N1-methylheptanediamide]	50 to 150	induce BCL-xL degradation	–	–

The next lines start with results.

IC50 (MOLT-4 cells) [nM]	BCL-xL degradation in MOLT-4 cells (Bcl-xL)	SMILES	BCL-xL degradation in MOLT-4 cells, dose dependence (Bcl-xL; FIG. 9)	Bcl-xL degradation with proteasome inhibitor MG132 (Bcl-xL; MOLT-4 cells pretreated with 1 μM MG132 for 1 hour, then 100 nM compound for 16 h, FIG. 10)
50 to 150	induce BCL-xL degradation	Cc1ncsc1-c1ccc([C@H](C)NC(=O)[C@@H]2C[C@@H](O)CN2C(=O)[C@@H](NC(=O)CCCCCCN2CCN(CC[C@H](CSc3ccccc3)Nc3ccc(S(=O)(=O)NC(=O)c4ccc(N5CCN(CC6=C(C78CC(C)(C7)C8)CC(C)(C)CC6)CC5)cc4)cc3S(=O)(=O)C(F)(F)F)CC2)C(C)(C)C)cc1 [Example 25, (2S,4R)-1-((S)-2-(7-(4-((R)-3-((4-(N-(4-(4-((4,4-dimethyl-2-(3-methylbicyclo[1.1.1]pentan-1-yl)cyclohex-1-en-1-yl)methyl)piperazin-1-yl)benzoyl)sulfamoyl)-2-((trifluoromethyl)sulfonyl)phenyl)amino)-4-(phenylthio)butyl)piperazin-1-yl)heptanamido)-3,3-dimethylbutanoyl)-4-hydroxy-N—((S)-1-(4-(4-methylthiazol-5-yl)phenyl)ethyl)pyrrolidine-2-carboxamide]	–	–
≤ 50	–	CC1(C)CCC(CN2CCN(c3ccc(C(=O)NS(=O)(=O)c4ccc(N[C@H](CCN5CCN(CCCC#Cc6ccc7c(c6)CN(C6CCC(=O)NC6=O)C7=O)CC5)CSc5ccccc5)c(S(=O)(=O)C(F)(F)F)c4)cc3)CC2)=C(C23CC(C(F)F)(C2)C3)C1 (stereo partly drawn) [Example 30]	can induce BCL-xL degradation in MOLT-4 cells in a dose dependent manner	can be inhibited by proteasome inhibitor MG132
50 to 150	induce BCL-xL degradation	Cc1ncsc1-c1ccc([C@H](C)NC(=O)[C@@H]2C[C@@H](O)CN2C(=O)[C@@H](NC(=O)CCCCC(=O)N(C)C2CCN(CC[C@H](CSc3ccccc3)Nc3ccc(S(=O)(=O)NC(=O)c4ccc(N5CCN(CC6=C(C78CC(C(F)F)(C7)C8)CC(C)(C)CC6)CC5)cc4)cc3S(=O)(=O)C(F)(F)F)CC2)C(C)(C)C)cc1 [Example 43, N1-(1-((R)-3-((4-(N-(4-(4-((2-(3-(difluoromethyl)bicyclo[1.1.1]pentan-1-yl)-4,4-dimethylcyclohex-1-en-1-yl)methyl)piperazin-1-yl)benzoyl)sulfamoyl)-2-((trifluoromethyl)sulfonyl)phenyl)amino)-4-(phenylthio)butyl)piperidin-4-yl)-N6-((S)-1-((2S,4R)-4-hydroxy-2-(((S)-1-(4-(4-methylthiazol-5-yl)phenyl)ethyl)carbamoyl)pyrrolidin-1-yl)-3,3-dimethyl-1-oxobutan-2-yl)-N1-methyladipamide]	–	–
